Measurements taken from patent US20100075907A1, “NEUROMEDIN U RECEPTOR AGONISTS AND USES THEREOF” (priority 2006, published 2010).
Non-standard residues stand in square brackets, D forms with d. Residues, ends and D or L forms follow the SMILES beside them. No end group written: not given here. dNle = CCCC[C@@H](N)C(=O)O

Key:
[1] = biological target: T1, hNMUR1 (Homo sapiens, UniProt Q9HB89); assay: In vitro functional assay, HEK-hR1 cells; format: cell-based; design: expressed in transfected cells; host or cells: FLP-In CHO or HEK-293 FLP-In cells (pcDNA5); HEK-293/aeq17 lines (pIRES-puro) were also made
T1 sequence (Q9HB89 1-426): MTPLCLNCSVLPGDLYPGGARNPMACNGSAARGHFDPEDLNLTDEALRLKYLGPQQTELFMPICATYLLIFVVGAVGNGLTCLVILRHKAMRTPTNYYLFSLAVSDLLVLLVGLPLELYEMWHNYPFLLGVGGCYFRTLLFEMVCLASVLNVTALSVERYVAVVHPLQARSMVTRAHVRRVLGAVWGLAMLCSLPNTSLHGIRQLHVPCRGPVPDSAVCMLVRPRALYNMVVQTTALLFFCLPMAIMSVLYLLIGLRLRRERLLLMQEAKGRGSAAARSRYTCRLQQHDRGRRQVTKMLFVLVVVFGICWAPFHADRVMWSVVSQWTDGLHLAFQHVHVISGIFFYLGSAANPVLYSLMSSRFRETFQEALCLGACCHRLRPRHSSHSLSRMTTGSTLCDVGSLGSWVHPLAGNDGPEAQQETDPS
Source text: (§1) Human, mouse or rat cDNAs encoding NMUR1 or NMUR2 (as described in Howard et al. Nature 406: 70-74 (2000) were subcloned in pcDNA5 (Invitrogen) and transfected into FLP-In CHO cells and HEK-293 FLP-In cells purchased from Invitrogen (Carlsbad, Calif.) using lipofectamine (Invitrogen). The Flp-In system allows integration and expression of a particular gene of interest at a specific genomic location utilizing the Flp recombinase from yeast. The transfected cells were selected by growth in medium containing 200 μg/mL hygromycin (Invitrogen). Populations were frozen at early passage numbers, and these stocks were used for further studies. Stable clones that expressed the mRNAs were identified functionally by FLIPR as well as by RT-PCR. […] Two different rodent NMUR1 cell lines were thus generated: one with the codon as predicted from the genomic databases and another cell line with an engineered methionine (ATG) as the start codon. Additionally, stable cell lines expressing the human receptors were generated in HEK-293/aeq17 cells which stably express the aequorin gene under the CMV promoter. The human NMUR2 cDNA was cloned into pcDNA3.1 and human NMUR1 was subcloned into pIRES-puro (Clontech, Mountain View, Calif.), after transfection cells were selected in media containing G418 and either hygromycin (NMUR2) or puromycin (NMUR1).
(§2) The NMU receptors signal primarily through Gαq/11 proteins; therefore calcium mobilization assays can be utilized for functional activity.
(§3) Stable cell lines expressing human and or rodent NMUR1 or human NMUR2 receptors were plated at a density of 12,000 cells per well overnight on poly-lysine coated 384-well black-walled plates. The following day, the media was removed from the plates and the cells were subsequently loaded with Fluo-3 (Molecular Probes), a calcium sensitive dye, diluted in FLIPR buffer (1× Hank's buffered saline containing 20 mM HEPES, 0.1% BSA, 2.5 mM probenecid (Sigma) and 1.6 mM TR40). All reagents are from Invitrogen unless otherwise noted. Peptide stocks were resuspended in DMSO at a stock concentration of 2 mM and diluted in FLIPR buffer on the day of the experiment to a 4 μM working stock solution.
(§4) After a 90 minute incubation at room-temperature, cell plates were loaded onto a FLIPR (Molecular Devices) to monitor cellular fluorescence (excitation=488 nm; emission=540 nm) before and after compound/peptide addition. Eight to twelve point dose responses were tested on NMUR-expressing cell lines using FLIPR with 1 μM peptide as the highest dose. The response after peptide addition was taken as the maximum fluorescence units minus the fluorescence immediately prior to stimulation for each well. EC50 values were calculated using GraphPad Prism (San Diego, Calif.) software.
In addition to FLIPR, NMU receptor function can also be evaluated using an aequorin assay. Stable cell lines expressing the aequorin jelly fish gene can be used to report the activation of GPCRs by monitoring intracellular calcium mobilization. The objective is to identify compounds which specifically stimulate aequorin bioluminescence. Calcium-dependent luminescence is generated by the treatment of cells with the coelenterate luciferin, coelenterazine. Briefly, confluent monolayers of HEK-293/aeq 17 cells expressing hNMUR1 or hNMUR2 are “charged” with coelenterazine (Molecular Probes, Carlsbad, Calif.). Confluent T75 flasks are rinsed with media containing 300 μM glutathione and 0.1% FBS. Cells are incubated at 37° C. for one hour in 8 mL media, 0.1% FBS, 300 μM glutathione, and 20 μM coelenterazine. T75 flasks are subsequently rinsed with 6 mL ECB buffer (140 mM NaCl, 20 mM KCl, 20 mM HEPES, 5 mM glucose, 1 mM MgCl, 1 mM CaCl2, 0.1 mg/mL BSA, PH 7.3-7.4). Cells are removed from the flask in ECB buffer, pelleted, and resuspended at a density of 2×10^5 cells/mL. Agonists are added to the cells and activity is determined using a luminometer. […]

[2] = biological target: hNMUR2 (Homo sapiens, UniProt Q9GZQ4); assay: In vitro functional assay, HEK-hR2 cells; format: cell-based; design: expressed in transfected cells; host or cells: FLP-In CHO or HEK-293 FLP-In cells (pcDNA5); HEK-293/aeq17 lines (pcDNA3.1) were also made; % Activity: concentration or dose not given beside the values
Chain of hNMUR2 (Q9GZQ4 whole entry): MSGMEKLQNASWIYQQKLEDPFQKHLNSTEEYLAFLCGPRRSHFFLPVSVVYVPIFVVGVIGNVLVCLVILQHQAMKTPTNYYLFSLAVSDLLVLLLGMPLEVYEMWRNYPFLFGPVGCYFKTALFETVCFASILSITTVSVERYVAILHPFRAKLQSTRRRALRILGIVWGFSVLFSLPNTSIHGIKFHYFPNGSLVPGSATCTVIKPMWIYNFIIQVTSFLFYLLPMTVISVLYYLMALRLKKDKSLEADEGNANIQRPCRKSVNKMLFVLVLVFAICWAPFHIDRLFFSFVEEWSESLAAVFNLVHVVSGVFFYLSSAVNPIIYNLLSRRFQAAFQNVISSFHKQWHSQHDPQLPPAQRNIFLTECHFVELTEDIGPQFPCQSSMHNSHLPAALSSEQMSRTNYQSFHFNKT
Source text: as §1, §2, §3, §4
In addition to FLIPR, NMU receptor function can also be evaluated using an aequorin assay. Stable cell lines expressing the aequorin jelly fish gene can be used to report the activation of GPCRs by monitoring intracellular calcium mobilization. The objective is to identify compounds which specifically stimulate aequorin bioluminescence. Calcium-dependent luminescence is generated by the treatment of cells with the coelenterate luciferin, coelenterazine. Briefly, confluent monolayers of HEK-293/aeq 17 cells expressing hNMUR1 or hNMUR2 are “charged” with coelenterazine (Molecular Probes, Carlsbad, Calif.). Confluent T75 flasks are rinsed with media containing 300 μM glutathione and 0.1% FBS. Cells are incubated at 37° C. for one hour in 8 mL media, 0.1% FBS, 300 μM glutathione, and 20 μM coelenterazine. T75 flasks are subsequently rinsed with 6 mL ECB buffer (140 mM NaCl, 20 mM KCl, 20 mM HEPES, 5 mM glucose, 1 mM MgCl, 1 mM CaCl2, 0.1 mg/mL BSA, PH 7.3-7.4). Cells are removed from the flask in ECB buffer, pelleted, and resuspended at a density of 2×10^5 cells/mL. Agonists are added to the cells and activity is determined using a luminometer.

Row | Compound | % Activity ([1]; Table 9, HEK-hR1, functional) | EC50 ([1]; Table 9, HEK-hR1, functional) | % Activity ([2]; Table 9, HEK-hR2, functional) | % Activity ([1]; Table 8, HEK-hR1, functional) | IC50 ([1]; Table 8, HEK-hR1, functional) | % Activity ([2]; Table 8, HEK-hR2, functional) | IC50 ([2]; Table 8, HEK-hR2, functional) | EC50 ([2]; Table 9, HEK-hR2, functional)
1 | CCCC[C@@H](NC(=O)[C@H](CCCNC(=N)N)NC(=O)[C@@H]1CCCN1C(=O)[C@H](CCCNC(=N)N)NC(=O)[C@H](Cc1ccccc1)NC(=O)[C@H](CC(C)C)NC(=O)[C@H](Cc1c[nH]c2ccccc12)NC(=O)[C@H](Cc1ccccc1)NC(=O)CNC(=O)[C@H](CCCNC(=N)N)NC(=O)[C@H](CO)NC(=O)[C@H](CCC(N)=O)NC(=O)[C@H](CO)NC(=O)[C@H](C)NC(=O)[C@H](Cc1ccccc1)NC(=O)[C@@H]1CCCN1C(=O)[C@H](CO)NC(=O)[C@H](CCC(N)=O)NC(=O)[C@H](Cc1ccccc1)NC(=O)[C@H](CCC(=O)O)NC(=O)[C@H](CCC(=O)O)NC(=O)[C@H](CC(=O)O)NC(=O)[C@@H](NC(=O)[C@H](CCCNC(=N)N)NC(=O)[C@@H](N)Cc1ccccc1)C(C)C)C(N)=O [Agonist Q] (H-FRVDEEFQSPFASQSRGFWLFRPR[dNle]-NH2) | 0% | > 1000 nM | 97% | – | – | – | – | –
2 | CC(C)C[C@H](NC(=O)[C@H](Cc1ccccc1)NC(=O)[C@@H](N)Cc1ccc(O)cc1)C(=O)N[C@@H](Cc1ccccc1)C(=O)N[C@@H](CCCNC(=N)N)C(=O)N1CCC[C@H]1C(=O)N[C@@H](CCCNC(=N)N)C(=O)N[C@@H](CC(N)=O)C(N)=O [NMU-8, reference compound] | 100% | – | 104% | – | – | – | – | –
3 | Ac-FFRPRN-NH2 [Agonist F, Ac-FFRPRN-CONH2] | – | – | – | 96% | 42 nM | 96% | 870 nM | –
4 | FALFRPRN-NH2 [Agonist N] | 87% | – | 100% | – | – | – | – | –
5 | H-FRVDEEFQSPFASQSRGYFLFRPRN-NH2 [hNMU-25, reference compound] | 100% | 5.5 nM | 100% | – | – | – | – | 1.5 nM
6 | H-FRVDEEFQSPFASQSRGYFWRPRN-NH2 [Agonist G] | – | – | – | 91% | – | 14% | > 1000 nM | –
7 | H-FWLFRARN-NH2 [Agonist L] | 74% | > 1000 nM | 100% | – | – | – | – | –
8 | H-YFGWRPRN-NH2 [Agonist C] | – | – | – | 87% | 1.1 nM | 0% | > 1000 nM | –
9 | WALFRARN-NH2 [Agonist M] | 0% | > 1000 nM | 93% | – | – | – | – | 33 nM
10 | YFWRPRN-NH2 [Agonist A, YFWRPRN-CONH2] | – | – | – | 92% | 2.7 nM | 0% | > 1000 nM | –
